Source: patent publication US20100139154A1, “PROCESS FOR FERMENTIVE PREPARATION OF ALCOHOLS AND RECOVERY OF PRODUCT” (E.I. DU PONT DE NEMOURS AND COMPANY, priority 2008, published 2010)
“And” between values parts separate entries of the source, which are not always exact repeats. Identical values can stand only once.

Tests used:
[1] = system: Lactobacillus fermentum (ATCC 14931); test: Glucose Uptake Index (GUI) of Lactobacillus fermentum culture with 5% v/v ionic liquid; format: cell-based; settings: MRS medium, 16 hours, 30° C., paired control GUI 99.8, 26.5 or 94.6
[2] = Extraction of ethanol from an aqueous solution by ionic liquid, HPLC; format: physicochemical; settings: concentration in aqueous solution after overnight equilibration with 5 vol % ionic liquid; control 684 mM
Procedure: (§1) Ethanol and isobutanol concentration in the solution was measured using HPLC as described above following thorough mixing and overnight equilibration of the contents of the vial.

[3] = Extraction of isobutanol from an aqueous solution by ionic liquid, HPLC; format: physicochemical; settings: concentration in aqueous solution after overnight equilibration with 5 vol % ionic liquid; control 416 mM
Procedure: as §1

[4] = system: Lactobacillus zeae (ATCC 15820); test: Glucose Uptake Index (GUI) of Lactobacillus zeae culture with 5% v/v ionic liquid
Procedure: This media was made per bottle instructions using sterilized water, and was then again filter sterilized before use. The test tubes were incubated at 30° C. at 175 rpm in an Inova Incubator (Karlsbad, Sweden). After 24 hours, the test tubes were removed and stored at 4° C.
A portion (50 μL) of each stock culture prepared as above was inoculated into separate 15 mL sterile polypropylene culture tubes containing fresh MRS medium (3 mL). These tubes were incubated for four hours at 30° C. at 175 rpm. After four hours, one of these culture tubes was inoculated with 150 μL (5% v/v) of each of the ionic liquids as listed in Table 1 below. […] Each tube that was inoculated with an ionic liquid was also paired with a tube that received no ionic liquid and was used as a control.
All culture tubes were then incubated again under the same conditions for another 16 hours. After 16 hours, the culture tubes were stored at −80° C. Analytical samples were taken from each culture tube by thawing the samples and spinning them at 28,000 rpm and 20° C. for ten minutes in a Sorvall Instruments RC3C (Newtown Conn.) centrifuge. One milliliter of supernatant was removed from each tube and was subjected to high performance liquid chromatography (HPLC) analysis using an Agilent (Palo Alto Calif.) HPLC 1100 with a BioRad Aminex 87-H using 0.008 N sulfuric acid with both diode array and refractive index detection, and an Agilent HPLC 1100 with a Shodex OH-pak column using 0.01 N sulfuric acid. Data analysis was performed using the Agilent Chemstation software and Microsoft Excel.
The glucose uptake index was calculated by taking the total glucose consumed in a fermentation sample, whether or not the sample contained an ionic liquid, and dividing it by the total initial glucose present in the broth at the start of fermentation.

Molecule	GUI of Sample (Glucose Utilization Index in the presence of 5% (v/v) of the ionic liquid phase) [1]	Ethanol [2] [mM]	Isobutanol [3] [mM]	GUI of Sample (Glucose Utilization Index in the presence of 5% (v/v) of the ionic liquid phase) [4]
CCCCn1cc[n+](C)c1.F[P-](F)(F)(F)(F)F [[BMIM] [PF6], 1-butyl-3-methylimidazolium hexafluorophosphate]	88.3			
CCCCCCn1cc[n+](C)c1.FC(F)(F)C(F)(F)[P-](F)(F)(F)(C(F)(F)C(F)(F)F)C(F)(F)C(F)(F)F [[HMIM] [FAP], 1-hexyl-3-methylimidazolium tris(pentafluoroethyl)trifluorophosphate]	84.7	680	404	
1-butyl-3-methylimidazolium 1,1,2,3,3,3-hexafluoropropanesulfonate [[BMIM] [HFPS]]	8.0 and 11.5			
tetradecyl(tri-n-hexyl)phosphonium 1,1,2-trifluoro-2-(perfluoroethoxy)ethanesulfonate [[6,6,6,14-P] [TPES]]	92.8			62.8
1-hexyl-3-methylimidazolium bis(trifluoromethylsulfonyl)imide [[HMIM] [Tf2N]]	19.5	678	388	66.2
CCCCn1cc[n+](C)c1.F[B-](F)(F)F [[BMIM] [BF4], 1-butyl-3-methylimidazolium tetrafluoroborate]	9.74			
1-butyl-3-methylpyrrolidinium bis(trifluoromethylsulfonyl)imide [[BMP] [Tf2N]]	0.96	676	391	49.8
1-butyl-3-methylimidazolium 1,1,2-trifluoro-2-(trifluoromethoxy)ethanesulfonate [[BMIM] [TTES]]	16.2			
1-butyl-3-methylimidazolium bis(trifluoromethylsulfonyl)imide [[BMIM] [Tf2N]]	26.8			
3-methyl-1-propylpyridinium bis(trifluoromethylsulfonyl)imide [[PMPy] [Tf2N]]	26.1			63.5
1-ethyl-3-methylimidazolium bis(pentafluoroethylsulfonyl)imide [[EMIM] [BEI]]	25.5			36.0
1-butyl-3-methylimidazolium 2-(1,2,2,2-tetrafluoroethoxy)-1,1,2,2-tetrafluoroethanesulfonate [[BMIM] [FS]]	24.0			
1-butyl-3-methylimidazolium 1,1,2-trifluoro-2-(perfluoroethoxy)ethanesulfonate [[BMIM] [TPES]]	7.21			
1-ethyl-3-methylimidazolium bis(trifluoromethylsulfonyl)imide [[EMIM] [Tf2N]]	54.5	670	389	51.2
